Test results as given in patent US20210254272A1, “TEXTILES HAVING ANTIMICROBIAL PROPERTIES” (Livinguard AG, priority 2015, published 2021).

Test system: E. coli (ATCC 25922)
Assay: AATCC Test Method 100-2012 antibacterial activity of the treated textile, after 25 washes and 12 abrasion cycles, contact time 60 minutes
Format: cell-based
Conditions: for Performance Test-Log reduction of antimicrobial performance: pad process, 2 min
Experimental: The antibacterial activity of the textile was tested in accordance with AATCC Test Method 100-2012. Prior to the test, the fabric was cut into coupons of 2×4 inches and washed separately 25 times, and exposed to 12 abrasion cycles, as per US EPA protocol 90072PA4 (described further below). The tests were made against E. coli (ATCC 25922). Contact time was 60 minutes, after inoculating with 10^8 CFU per coupon.

CCCCCCCCCCCCCCCCCC[N+](C)(C)CCC[Si](OC)(OC)OC [Organosilane, dimethyloctadecyl[3-(trimethoxysilyl)propyl] ammonium chloride]
Performance Test-Log reduction of antimicrobial performance (single agent 5 gm/lit, curing 180° C.): 0.93 Log
Performance Test-Log reduction of antimicrobial performance (single agent 10 gm/lit, curing 120° C.): 0.38 Log
Performance Test-Log reduction of antimicrobial performance (single agent 10 gm/lit, curing 140° C.): 0.53 Log
Performance Test-Log reduction of antimicrobial performance (single agent 10 gm/lit, curing 150° C.): 0.62 Log
Performance Test-Log reduction of antimicrobial performance (single agent 10 gm/lit, curing 160° C.): 0.98 Log
Performance Test-Log reduction of antimicrobial performance (single agent 10 gm/lit, curing 180° C.): 2.21 Log
Log reduction of antimicrobial performance (pure cotton fabric, exhaust 80° C., 60 min, dosage 0.1% o.w.f): 0.81 Log
Log reduction of antimicrobial performance (pure cotton fabric, exhaust 80° C., 60 min, dosage 0.2% o.w.f): 1.67 Log
Log reduction of antimicrobial performance (pure cotton fabric, exhaust 80° C., 60 min, dosage 0.5% o.w.f): 1.83 Log
Log reduction of antimicrobial performance (pure cotton fabric, exhaust 80° C., 60 min, dosage 0.8% o.w.f): 2.17 Log
Log reduction of antimicrobial performance (pure cotton fabric, exhaust 80° C., 60 min, dosage 1.0% o.w.f): 2.56 Log
Log reduction of antimicrobial performance (pure cotton, exhaust 80° C., 1% o.w.f, 60 min, curing 180° C., curing dwell time 0.5 min): 0.3 Log
Log reduction of antimicrobial performance (pure cotton, exhaust 80° C., 1% o.w.f, 60 min, curing 180° C., curing dwell time 1.0 min): 1.1 Log
Log reduction of antimicrobial performance (pure cotton, exhaust 80° C., 1% o.w.f, 60 min, curing 180° C., curing dwell time 1.5 min): 1.8 Log
Log reduction of antimicrobial performance (pure cotton, exhaust 80° C., 1% o.w.f, 60 min, curing 180° C., curing dwell time 2.0 min): 2.5 Log
Log reduction of antimicrobial performance (pure cotton, exhaust 80° C., 1% o.w.f, 60 min, curing 180° C., curing dwell time 2.5 min): 2.4 Log
Log reduction of antimicrobial performance (pure cotton, exhaust 80° C., 1% o.w.f, 60 min, curing 180° C., curing dwell time 3.0 min): 1.4 Log
Log reduction of antimicrobial performance (pure polyester fabric, exhaust 80° C., 60 min, curing 180° C., curing dwell time 0.5 min): 0.4 Log
Log reduction of antimicrobial performance (pure polyester fabric, exhaust 80° C., 60 min, curing 180° C., curing dwell time 1.0 min): 1.2 Log
Log reduction of antimicrobial performance (pure polyester fabric, exhaust 80° C., 60 min, curing 180° C., curing dwell time 1.5 min): 1.7 Log
Log reduction of antimicrobial performance (pure polyester fabric, exhaust 80° C., 60 min, curing 180° C., curing dwell time 2.0 min): 2.75 Log
Log reduction of antimicrobial performance (pure polyester fabric, exhaust 80° C., 60 min, curing 180° C., curing dwell time 2.5 min): 2.45 Log
Log reduction of antimicrobial performance (pure polyester fabric, exhaust 80° C., 60 min, curing 180° C., curing dwell time 3.0 min): 1.3 Log
Log reduction of antimicrobial performance (pure polyester fabric, exhaust 80° C., 60 min, dosage 0.1% o.w.f): 0.72 Log
Log reduction of antimicrobial performance (pure polyester fabric, exhaust 80° C., 60 min, dosage 0.2% o.w.f): 1.65 Log
Log reduction of antimicrobial performance (pure polyester fabric, exhaust 80° C., 60 min, dosage 0.5% o.w.f): 1.75 Log
Log reduction of antimicrobial performance (pure polyester fabric, exhaust 80° C., 60 min, dosage 0.8% o.w.f): 2.16 Log
Log reduction of antimicrobial performance (pure polyester fabric, exhaust 80° C., 60 min, dosage 1.0% o.w.f): 2.58 Log
Log reduction of antimicrobial performance (solution dosage 0.10% o.w.f, exhaust temperature 40° C., process time 60 min): 0 Log
Log reduction of antimicrobial performance (solution dosage 0.10% o.w.f, exhaust temperature 60° C., process time 60 min): 0 Log
Log reduction of antimicrobial performance (solution dosage 0.10% o.w.f, exhaust temperature 65° C., process time 60 min): 0 Log
Log reduction of antimicrobial performance (solution dosage 0.10% o.w.f, exhaust temperature 70° C., process time 60 min): 0 Log
Log reduction of antimicrobial performance (solution dosage 0.10% o.w.f, exhaust temperature 75° C., process time 60 min): 0.63 Log
Log reduction of antimicrobial performance (solution dosage 0.10% o.w.f, exhaust temperature 80° C., process time 60 min): 0.78 Log
Log reduction of antimicrobial performance (solution dosage 0.10% o.w.f, exhaust temperature 85° C., process time 60 min): 0.81 Log
Log reduction of antimicrobial performance (solution dosage 0.10% o.w.f, exhaust temperature 90° C., process time 60 min): 0.82 Log
Log reduction of antimicrobial performance (solution dosage 0.10% o.w.f, exhaust temperature 95° C., process time 60 min): 0.82 Log
Log reduction of antimicrobial performance (solution dosage 0.20% o.w.f, exhaust temperature 40° C., process time 60 min): 0 Log
Log reduction of antimicrobial performance (solution dosage 0.20% o.w.f, exhaust temperature 60° C., process time 60 min): 0.09 Log
Log reduction of antimicrobial performance (solution dosage 0.20% o.w.f, exhaust temperature 65° C., process time 60 min): 0.10 Log
Log reduction of antimicrobial performance (solution dosage 0.20% o.w.f, exhaust temperature 70° C., process time 60 min): 0.17 Log
Log reduction of antimicrobial performance (solution dosage 0.20% o.w.f, exhaust temperature 75° C., process time 60 min): 0.92 Log
Log reduction of antimicrobial performance (solution dosage 0.20% o.w.f, exhaust temperature 80° C., process time 60 min): 1.52 Log
Log reduction of antimicrobial performance (solution dosage 0.20% o.w.f, exhaust temperature 85° C., process time 60 min): 1.65 Log
Log reduction of antimicrobial performance (solution dosage 0.20% o.w.f, exhaust temperature 90° C., process time 60 min): 1.65 Log
Log reduction of antimicrobial performance (solution dosage 0.20% o.w.f, exhaust temperature 95° C., process time 60 min): 1.65 Log
Log reduction of antimicrobial performance (solution dosage 0.50% o.w.f, exhaust temperature 40° C., process time 60 min): 0 Log
Log reduction of antimicrobial performance (solution dosage 0.50% o.w.f, exhaust temperature 60° C., process time 60 min): 0.17 Log
Log reduction of antimicrobial performance (solution dosage 0.50% o.w.f, exhaust temperature 65° C., process time 60 min): 0.18 Log
Log reduction of antimicrobial performance (solution dosage 0.50% o.w.f, exhaust temperature 70° C., process time 60 min): 0.19 Log
Log reduction of antimicrobial performance (solution dosage 0.50% o.w.f, exhaust temperature 75° C., process time 60 min): 1.23 Log
Log reduction of antimicrobial performance (solution dosage 0.50% o.w.f, exhaust temperature 80° C., process time 60 min): 1.78 Log
Log reduction of antimicrobial performance (solution dosage 0.50% o.w.f, exhaust temperature 85° C., process time 60 min): 1.82 Log
Log reduction of antimicrobial performance (solution dosage 0.50% o.w.f, exhaust temperature 90° C., process time 60 min): 1.83 Log
Log reduction of antimicrobial performance (solution dosage 0.50% o.w.f, exhaust temperature 95° C., process time 60 min): 1.83 Log
Log reduction of antimicrobial performance (solution dosage 0.80% o.w.f, exhaust temperature 40° C., process time 60 min): 0 Log
Log reduction of antimicrobial performance (solution dosage 0.80% o.w.f, exhaust temperature 60° C., process time 60 min): 0.23 Log
Log reduction of antimicrobial performance (solution dosage 0.80% o.w.f, exhaust temperature 65° C., process time 60 min): 0.24 Log
Log reduction of antimicrobial performance (solution dosage 0.80% o.w.f, exhaust temperature 70° C., process time 60 min): 0.36 Log
Log reduction of antimicrobial performance (solution dosage 0.80% o.w.f, exhaust temperature 75° C., process time 60 min): 1.32 Log
Log reduction of antimicrobial performance (solution dosage 0.80% o.w.f, exhaust temperature 80° C., process time 60 min): 2.13 Log
Log reduction of antimicrobial performance (solution dosage 0.80% o.w.f, exhaust temperature 85° C., process time 60 min): 2.23 Log
Log reduction of antimicrobial performance (solution dosage 0.80% o.w.f, exhaust temperature 90° C., process time 60 min): 2.34 Log
Log reduction of antimicrobial performance (solution dosage 0.80% o.w.f, exhaust temperature 95° C., process time 60 min): 2.34 Log
Log reduction of antimicrobial performance (solution dosage 1.00% o.w.f, exhaust temperature 40° C., process time 60 min): 0 Log
Log reduction of antimicrobial performance (solution dosage 1.00% o.w.f, exhaust temperature 60° C., process time 60 min): 0.28 Log
Log reduction of antimicrobial performance (solution dosage 1.00% o.w.f, exhaust temperature 65° C., process time 60 min): 0.29 Log
Log reduction of antimicrobial performance (solution dosage 1.00% o.w.f, exhaust temperature 70° C., process time 60 min): 0.42 Log
Log reduction of antimicrobial performance (solution dosage 1.00% o.w.f, exhaust temperature 75° C., process time 60 min): 1.45 Log
Log reduction of antimicrobial performance (solution dosage 1.00% o.w.f, exhaust temperature 80° C., process time 60 min): 2.56 Log
Log reduction of antimicrobial performance (solution dosage 1.00% o.w.f, exhaust temperature 85° C., process time 60 min): 2.69 Log
Log reduction of antimicrobial performance (solution dosage 1.00% o.w.f, exhaust temperature 90° C., process time 60 min): 2.71 Log
Log reduction of antimicrobial performance (solution dosage 1.00% o.w.f, exhaust temperature 95° C., process time 60 min): 2.71 Log
